Source: patent US11524966B1 (Valo Early Discovery, Inc., priority 2017, dated 2022)

Biological target: T1, USP28 (USP28-5(1-1077)-TEV-6*His; LifeSensors) (Homo sapiens, UniProt Q96RU2)
T1 construct: construct USP28 (USP28-5(1-1077)-TEV-6*His; LifeSensors); TEV cleavage site (C); 6xHis (C); purchased LifeSensors
T1 sequence (Q96RU2 1-1077): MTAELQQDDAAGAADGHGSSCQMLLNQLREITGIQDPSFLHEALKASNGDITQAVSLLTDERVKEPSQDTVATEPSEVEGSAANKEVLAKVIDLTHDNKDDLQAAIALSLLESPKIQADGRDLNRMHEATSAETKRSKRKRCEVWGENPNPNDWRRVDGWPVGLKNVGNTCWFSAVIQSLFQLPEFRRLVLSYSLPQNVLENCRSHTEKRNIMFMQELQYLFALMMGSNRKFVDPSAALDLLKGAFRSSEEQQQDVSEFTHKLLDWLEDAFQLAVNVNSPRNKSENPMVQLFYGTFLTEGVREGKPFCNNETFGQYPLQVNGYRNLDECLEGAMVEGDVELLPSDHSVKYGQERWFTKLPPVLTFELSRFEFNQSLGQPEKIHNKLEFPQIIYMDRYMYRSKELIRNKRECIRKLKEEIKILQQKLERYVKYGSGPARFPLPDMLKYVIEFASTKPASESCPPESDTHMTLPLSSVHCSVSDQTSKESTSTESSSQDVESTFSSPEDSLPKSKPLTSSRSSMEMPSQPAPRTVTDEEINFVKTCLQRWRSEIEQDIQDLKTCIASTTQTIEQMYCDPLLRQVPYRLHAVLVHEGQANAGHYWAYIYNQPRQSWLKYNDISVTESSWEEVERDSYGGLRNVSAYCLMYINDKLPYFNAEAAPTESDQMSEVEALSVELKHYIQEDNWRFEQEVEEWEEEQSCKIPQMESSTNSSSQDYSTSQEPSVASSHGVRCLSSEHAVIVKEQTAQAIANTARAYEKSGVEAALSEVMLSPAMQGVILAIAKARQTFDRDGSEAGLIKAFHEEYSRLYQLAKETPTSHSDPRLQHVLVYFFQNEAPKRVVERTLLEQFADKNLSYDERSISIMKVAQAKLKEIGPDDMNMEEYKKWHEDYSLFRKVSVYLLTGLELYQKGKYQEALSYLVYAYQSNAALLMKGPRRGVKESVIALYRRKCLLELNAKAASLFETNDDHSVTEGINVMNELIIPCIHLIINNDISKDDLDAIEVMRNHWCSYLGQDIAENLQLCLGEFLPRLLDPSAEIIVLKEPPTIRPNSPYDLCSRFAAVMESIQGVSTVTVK
Assay: Ubiquitin-Rhodamine 110 Assay for USP28 Activity, Example A-1(b)
Format: biochemical
Method in brief: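 Single-point screening used 10 μM compound with 90 min room-temperature incubation; follow-up dose-responses (25 μM top, 3-fold) used 75 pM USP28 1-1077 construct, 30 min compound preincubation, 25 nM Ub-Rh110, 20 min reaction, citric acid quench. Rh110 fluorescence normalised to no-enzyme and DMSO controls; IC50 from 4-parameter logistic fit.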

[1] = Ubiquitin-Rhodamine 110 assay, format Example A-1(b)

| SMILES | USP28 A-1(b) IC50 range [1] | USP28 A-1(b) IC50 range (Ub-Rh110 assay, Example A-1(b)) |
| --- | --- | --- |
| Cc1cnc2c(N)c(C(=O)N[C@H]3CCc4c(ccc(N5CC6CCC(C5)N6)c4C#N)C3)sc2n1 (single isomer, unassigned) [Example 14-6] | + (>2 μM) | – |
| Cc1ccc2c(N)c(C(=O)N[C@H]3CCc4cc(N5CC6CCC(C5)N6)c(C#N)cc4C3)sc2n1 (single isomer, unassigned) [Example 14-4] | ++++ (0.001-0.05 μM) | – |
| Cc1nc2sc(C(=O)N[C@H]3CCc4cc(N5CCNCC5)ccc4C3)c(N)c2s1 (single isomer, unassigned) [Example 11-33] | + (>2 μM) | – |
| Cc1ccc2c(N)c(C(=O)N[C@H]3COc4cc(N5CCN[C@@H](C)[C@H]5C)ccc4C3)sc2n1 (single isomer, unassigned) [Example 1-7] | – | ++++ (0.001-0.05 μM) |
| Cc1ccc2c(N)c(C(=O)N[C@@H]3CCc4c(ccc(N5CC6CCC(C5)N6)c4C#N)C3)sc2n1 (single isomer, unassigned) [Example 14-1] | ++++ (0.001-0.05 μM) | – |
| Cc1cnc2c(N)c(C(=O)N[C@H]3CCc4cc(N5CC6CCC(C5)N6)c(C#N)cc4C3)sc2n1 (single isomer, unassigned) [Example 14-8] | ++++ (0.001-0.05 μM) | – |
| Cc1nc2sc(C(=O)N[C@@H]3CCc4cc(N5CC6CCC(C5)N6)ccc4C3)c(N)c2s1 (single isomer, unassigned) [Example 12-2] | ++ (0.2-2 μM) | – |
| Cc1ccc2c(N)c(C(=O)N[C@@H]3CCc4cc(N5CC6CCC(C5)N6)c(C#N)cc4C3)sc2n1 (single isomer, unassigned) [Example 14-3] | ++ (0.2-2 μM) | – |
| Cc1cnc2c(N)c(C(=O)N[C@@H]3CCc4cc(N5CC6CCC(C5)N6)c(C#N)cc4C3)sc2n1 (single isomer, unassigned) [Example 14-7] | ++ (0.2-2 μM) | – |
| Cc1ccc2c(N)c(C(=O)N[C@H]3CCc4c(ccc(N5CC6CCC(C5)N6)c4C#N)C3)sc2n1 (single isomer, unassigned) [Example 14-2] | ++ (0.2-2 μM) | – |
| Cc1cnc2c(N)c(C(=O)N[C@@H]3CCc4c(ccc(N5CC6CCC(C5)N6)c4C#N)C3)sc2n1 (single isomer, unassigned) [Example 14-5] | +++ (0.05-0.2 μM) | – |
